Experiments:
Type in all cases: biochemical
[1] = target: 237(SER) mutant β-lactamase (Escherichia coli, UniProt P62593, A235S); assay: Kinetic rate determinations, 237(SER) mutant
Experimental: (§1) The fluorogenic β-lactamase substrates of the invention were tested for their ability to be hydrolyzed by β-lactamase with release of the fluorescent moiety. The kinetics of hydrolysis were compared to the kinetics of hydrolysis of nitrocefin. The two fluorogenic substrates tested were hydrolyzed using three mutant β-lactamases found in cephem resistant bacteria to compare the rate of hydrolysis with the wildtype enzyme, TEM-1 (Ambler. Phil. Trans. R. Soc. Lond. 289: 321 (1980); Sougakoff et al. Reviews of Infectious Diseases 10: 879 (1988)).
(§2) Nitrocefin kinetics were determined using a Hewlett-Packard 854A spectrophotometer with Chem Station programing, Hewlett-Packard Company Scientific Instruments Division (Palo Alto, Calif.). The data were fit to an unweighted Michaelis-Menten equation using the non-linear data regression package ENZFITTER (Elsevier-BIOSOFT, Cambridge, United Kingdom). The buffer used for all dilutions was 9:1 (50 mM phosphate buffer pH 7.2: DMSO), designated buffer A. The rate of hydrolysis for nitrocefin was determined at a range of 504-514 nm for 300 sec. […] Rates were determined using from 1-0.004 mL of nitrocefin solution diluted to 1 mL total with buffer A. Rate determining experiments were done using 9 different concentrations of the nitrocefin solution and a 1:25 dilution of each enzyme in buffer A.
(§3) Fluorescence kinetics were determined on a Perkin-Elmer LS-5 fluorescence spectrometer Perkin-Elmer Corp. (Norwalk, Conn.) for duration of 300 sec. […] Rates were determined using the following solutions: a) 10.8 mg cephalothin AMC carbamate dissolved in mL of DMSO diluted to 15 mL with buffer A, and b) 11.9 mg cefotaxime AMC carbamate dissolved in 1 mL DMSO diluted to 15 mL with buffer A. For each experiment 0.1 mL of substrate solution was diluted to 3 mL with buffer A. To this was added 0.03 mL of enzyme solution containing (25:1 dilution of the enzyme in buffer A). Fluorescence was read for 300 sec. The rates were determined for both substrates at this concentration for all enzymes tested.

[2] = target: 238(SER) mutant β-lactamase (Escherichia coli, UniProt P62593, G236S); assay: Kinetic rate determinations, 238(SER) mutant
Experimental: as §1, §2, §3

[3] = target: wildtype enzyme, TEM-1 β-lactamase (Escherichia coli, UniProt P62593); assay: Kinetic rate determinations, wild type enzyme; conditions: 300 sec, ranking among enzymes; for rate of cleavage (hydrolysis) of fluorogenic substrate: wild type enzyme, fluorescence 365/440 nm
Experimental: as §1, §2, §3

[4] = target: 104(LYS) mutant β-lactamase (Escherichia coli, UniProt P62593, E102K); assay: Kinetic rate determinations, 104(LYS) mutant
Experimental: as §1, §2, §3

β-lactamase = assay: Cleavage of chromogenic substrates, diazonium salt added to reaction mixture; conditions: releases 3-aminoindole
Source text: Cleavage of the β-lactam ring of cefotaxime indole carbamate or cephalothin indole carbamate produces a cascade of electron migration which releases 3-aminoindole.

[5] = system: β-lactamase (wild type and all mutant enzymes); assay: Kinetic rate determinations, fluorogenic substrates, all enzymes; conditions: by the wild type and all mutant enzymes
Experimental: as §1
Fluorescence kinetics were determined on a Perkin-Elmer LS-5 fluorescence spectrometer Perkin-Elmer Corp. (Norwalk, Conn.) for duration of 300 sec. Excitation and emission wavelengths were set to 365 and 440 nm with slits of 10 and 3 nm, respectively. Buffer A was used for all dilutions. […] Rates were determined using the following solutions: a) 10.8 mg cephalothin AMC carbamate dissolved in mL of DMSO diluted to 15 mL with buffer A, and b) 11.9 mg cefotaxime AMC carbamate dissolved in 1 mL DMSO diluted to 15 mL with buffer A. For each experiment 0.1 mL of substrate solution was diluted to 3 mL with buffer A. To this was added 0.03 mL of enzyme solution containing (25:1 dilution of the enzyme in buffer A). Fluorescence was read for 300 sec. The rates were determined for both substrates at this concentration for all enzymes tested.

## CO/N=C(\C(=O)N[C@@H]1C(=O)N2C(C(=O)O)=C(COC(=O)Nc3ccc4c(C)cc(=O)oc4c3)CS[C@H]12)c1csc(N)n1 [cefotaxime AMC carbamate, Cefotaxime AMC Carbamate]
[1]; fluorescence
  increase in hydrolysis rate in comparison to wild type β-lactamase: 60%
[2]; 238(SER) mutation, fluorescence
  increase in the rate of hydrolysis in comparison to wild type β-lactamase: greater than 100%
[3]
  rate of cleavage (hydrolysis) of fluorogenic substrate: cleaved most slowly
[4]; 104(LYS) mutation, fluorescence
  increase in the rate of hydrolysis in comparison to wild type β-lactamase: greater than 100%

## CO/N=C(\C(=O)N[C@@H]1C(=O)N2C(C(=O)O)=C(COC(=O)Nc3c[nH]c4ccccc34)CS[C@H]12)c1csc(N)n1 [cefotaxime indole carbamate, Cefotaxime Indole Carbamate]
β-lactamase
  product after cleavage with β-lactamase and addition of various diazonium salts: produced a colored precipitate

## Cc1cc(=O)oc2cc(NC(=O)OCC3=C(C(=O)O)N4C(=O)[C@@H](NC(=O)Cc5cccs5)[C@H]4SC3)ccc12 [cephalothin AMC carbamate, Cephalothin AMC Carbamate]
[1]; fluorescence 365/440 nm, 300 sec, ranking among enzymes
  rate of cleavage (hydrolysis) of fluorogenic substrate: cleaved fastest
[5]
  rate of cleavage compared between the two fluorogenic substrates: cleaved faster than the cefotaxime AMC carbamate
[2]; 238(SER) mutant, fluorescence 365/440 nm, 300 sec, ranking among enzymes
  rate of cleavage (hydrolysis) of fluorogenic substrate: most slowly
[3]
  rate of cleavage (hydrolysis) of fluorogenic substrate: followed closely by the wild type enzyme
[4]; 104(LYS) mutant, fluorescence 365/440 nm, 300 sec
  rate of cleavage relative to that of the 237(SER) enzyme: about half that of the 237(SER) enzyme

## O=C(Cc1cccs1)N[C@@H]1C(=O)N2C(C(=O)O)=C(COC(=O)Nc3c[nH]c4ccccc34)CS[C@H]12 [cephalothin indole carbamate, Cephalothin Aminoindole Carbamate]
β-lactamase
  product after cleavage with β-lactamase and addition of various diazonium salts: produced a colored precipitate

## O=C(Cc1cccs1)N[C@@H]1C(=O)N2C(C(=O)O)=C(/C=C/c3ccc([N+](=O)[O-])cc3[N+](=O)[O-])CS[C@H]12 [nitrocefin, Nitrocefin, reference compound]
[1]; spectrophotometric 504-514 nm, 300 sec, ranking among enzymes
  rate of hydrolysis for nitrocefin: fastest
[2]; 238(SER) mutant, spectrophotometric 504-514 nm, 300 sec, ranking among enzymes
  rate of hydrolysis for nitrocefin: then the 104(LYS) and 238(SER) mutants
[3]; wild type, spectrophotometric 504-514 nm
  rate of hydrolysis for nitrocefin: followed by wild type
[4]; 104(LYS) mutant, spectrophotometric 504-514 nm, 300 sec, ranking among enzymes
  rate of hydrolysis for nitrocefin: then the 104(LYS) and 238(SER) mutants

Source: US5514561A, “Fluorogenic and chromogenic β-lactamase substrates” (priority 1994, dated 1996)
